Assay results: US20020137929A1, “1 - (3-heterocyclylphenyl) isothiourea, -isourea, -guanidine and -amidine herbicidal agents” (Intellectual Property Department, BASF Aktiengesellschaft, priority 1998, published 2002)

Legend:
[1] = test system: TRZAWR (Wheat, Winter, cv Riband); test: Preemergence herbicidal evaluation; format: in vivo, Triticum aestivum; conditions: rated 4-5 weeks after treatment
How it was run: (§1)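 Sown cups got a single aqueous acetone spray of test compound (roughly 0.0156–0.500 kg/ha) before seedlings emerged. Evaluation, 4–5 weeks on, used a 0–9 visual scale covering plant stand, vigor, size, malformation, chlorosis and general appearance compared with controls.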

ORYSAT (Rice, Tebonnet) [2] = test: Postemergence herbicidal evaluation; format: in vivo, Oryza sativa, (L.) Tebonnet; conditions: postemergence
How it was run: (§2)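 Two-week seedlings sprayed postemergence at 40 psi; formulation: 1:1 acetone/water, 0.5% TWEEN 20; application ≈0.0156–0.500 kg/ha. Greenhouse grow-out, then 0–9 visual scoring at 4–5 weeks.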

[3] = test system: GLXMAW (Soybean, Williams); test: Preemergence herbicidal evaluation; format: in vivo, Glycine max, (L.) Merr. cv Williams; conditions: rated 4-5 weeks after treatment
How it was run: as §1

ECHCG (Barnyardgrass) = test: Postemergence herbicidal evaluation; format: in vivo, Echinochloa crus-galli; conditions: postemergence
How it was run: as §2

[4] = test system: GLXMAW (Soybean, Williams); test: Postemergence herbicidal evaluation; format: in vivo, Glycine max, (L.) Merr. cv Williams; conditions: postemergence
How it was run: as §2

[5] = test system: IPOHE (Morningglory, Ivyleaf); test: Postemergence herbicidal evaluation; format: in vivo, Ipomoea hederacea; conditions: postemergence
How it was run: as §2

GALAP (Galium) = test: Postemergence herbicidal evaluation; format: in vivo, Galium aparine; conditions: postemergence
How it was run: as §2

ABUTH (Velvetleaf) [6] = test: Postemergence herbicidal evaluation; format: in vivo, Abutilon theophrasti; conditions: postemergence
How it was run: as §2

[7] = test system: CHEAL (Lambsquarters, Common); test: Postemergence herbicidal evaluation; format: in vivo, Chenopodium album; conditions: postemergence
How it was run: as §2

ORYSAT (Rice, Tebonnet) [8] = test: Preemergence herbicidal evaluation; format: in vivo, Oryza sativa, (L.) Tebonnet; conditions: rated 4-5 weeks after treatment
How it was run: as §1

CYPIR (Rice Flatsedge) = test: Preemergence weed control under flooded paddy conditions; format: in vivo, Cyperus iria; conditions: rated 3-4 weeks after treatment
How it was run: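 First, seeds or propagules go into the top 0.5 cm of silt loam; next, water is held 1.5 to 3 cm over the soil; then compound (50/50 acetone/water) is pipetted into it at about 0.0313 to 0.500 kg/ha; finally plants are rated visually 0-9 after three to four weeks.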

ABUTH (Velvetleaf) [9] = test: Preemergence herbicidal evaluation; format: in vivo, Abutilon theophrasti; conditions: rated 4-5 weeks after treatment
How it was run: as §1

SETVI (Foxtail, Green) = test: Postemergence herbicidal evaluation; format: in vivo, Setaria viridis; conditions: postemergence
How it was run: as §2

CASOB (Sicklepod) = test: Preemergence herbicidal evaluation; format: in vivo, Cassia obtusifolia; conditions: rated 4-5 weeks after treatment
How it was run: as §1

[10] = test system: SAGPY (Arrowhead (Pygmaea)); test: Preemergence weed control under flooded paddy conditions; format: in vivo, Sagittaria pygmaea; conditions: rated 3-4 weeks after treatment
How it was run: (§3)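 Ratings on a 0-9 visual scale cover stand, vigor, malformation, size, chlorosis and overall appearance relative to a control, taken three to four weeks post-treatment. Application was into flood water over freshly sown silt loam at roughly 0.0313 to 0.500 kg/ha.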

MOOVA (Monochoria) = test: as above; format: in vivo, Monochoria vaginalis; conditions: rated 3-4 weeks after treatment
How it was run: as §3

AMBEL (Ragweed, Common) = test: Postemergence herbicidal evaluation; format: in vivo, Ambrosia artemisifolia; conditions: postemergence
How it was run: as §2

C#CCOC(=O)CN1C(=O)CSC1=Nc1cc(-n2c(=O)cc(C(F)(F)F)n(C)c2=O)c(F)cc1Cl [Compound 115, 2-Propynyl 2-{{2-chloro-5-[3,6-dihydro-3-methyl-2,6-dioxo-4-(trifluoromethyl)-1(2H)-pyrimidinyl]-4-fluorophenyl}imino}-4-oxo-3-thiazolidineacetate]
Preemergence herbicidal rating TRZAWR ([1]; rate 0.0156 kg/ha): 0.0 | Preemergence herbicidal rating TRZAWR ([1]; rate 0.0313 kg/ha): 0.0 | Preemergence herbicidal rating TRZAWR ([1]; rate 0.0625 kg/ha): 0.0 | Preemergence herbicidal rating TRZAWR ([1]; rate 0.1250 kg/ha): 0.0 | Preemergence herbicidal rating TRZAWR ([1]; rate 0.2500 kg/ha): 4.0 | Herbicidal rating ORYSAT (ORYSAT (Rice, Tebonnet) [2]; rate 0.0158 kg/ha): 1.5 | Herbicidal rating ORYSAT (ORYSAT (Rice, Tebonnet) [2]; rate 0.0315 kg/ha): 2.0 | Herbicidal rating ORYSAT (ORYSAT (Rice, Tebonnet) [2]; rate 0.0630 kg/ha): 2.5 | Preemergence herbicidal rating GLXMAW ([3]; rate 0.0156 kg/ha): 0.0 | Preemergence herbicidal rating GLXMAW ([3]; rate 0.0313 kg/ha): 0.0 | Preemergence herbicidal rating GLXMAW ([3]; rate 0.0625 kg/ha): 1.0 | Preemergence herbicidal rating GLXMAW ([3]; rate 0.1250 kg/ha): 3.0 | Preemergence herbicidal rating GLXMAW ([3]; rate 0.2500 kg/ha): 4.0 | Herbicidal rating ECHCG (ECHCG (Barnyardgrass); rate 0.0158 kg/ha): 0.0 | Herbicidal rating ECHCG (ECHCG (Barnyardgrass); rate 0.0315 kg/ha): 2.0 | Herbicidal rating ECHCG (ECHCG (Barnyardgrass); rate 0.0630 kg/ha): 3.0 | Herbicidal rating GLXMAW ([4]; rate 0.0158 kg/ha): 5.0 | Herbicidal rating GLXMAW ([4]; rate 0.0315 kg/ha): 5.0 | Herbicidal rating GLXMAW ([4]; rate 0.0630 kg/ha): 5.0 | Herbicidal rating IPOHE ([5]; rate 0.0158 kg/ha): 9.0 | Herbicidal rating IPOHE ([5]; rate 0.0315 kg/ha): 9.0 | Herbicidal rating IPOHE ([5]; rate 0.0630 kg/ha): 9.0 | Herbicidal rating GALAP (GALAP (Galium); rate 0.0158 kg/ha): 0.0 | Herbicidal rating GALAP (GALAP (Galium); rate 0.0315 kg/ha): 0.0 | Herbicidal rating GALAP (GALAP (Galium); rate 0.0630 kg/ha): 2.0 | Herbicidal rating ABUTH (ABUTH (Velvetleaf) [6]; rate 0.0158 kg/ha): 3.0 | Herbicidal rating ABUTH (ABUTH (Velvetleaf) [6]; rate 0.0315 kg/ha): 9.0 | Herbicidal rating ABUTH (ABUTH (Velvetleaf) [6]; rate 0.0630 kg/ha): 9.0 | Herbicidal rating CHEAL ([7]; rate 0.0158 kg/ha): 0.0 | Herbicidal rating CHEAL ([7]; rate 0.0315 kg/ha): 1.0 | Herbicidal rating CHEAL ([7]; rate 0.0630 kg/ha): 4.0 | Preemergence herbicidal rating ORYSAT (ORYSAT (Rice, Tebonnet) [8]; rate 0.0156 kg/ha): 0.0 | Preemergence herbicidal rating ORYSAT (ORYSAT (Rice, Tebonnet) [8]; rate 0.0313 kg/ha): 0.0 | Preemergence herbicidal rating ORYSAT (ORYSAT (Rice, Tebonnet) [8]; rate 0.0625 kg/ha): 0.0 | Preemergence herbicidal rating ORYSAT (ORYSAT (Rice, Tebonnet) [8]; rate 0.1250 kg/ha): 1.0 | Preemergence herbicidal rating ORYSAT (ORYSAT (Rice, Tebonnet) [8]; rate 0.2500 kg/ha): 3.0 | CYPIR herbicidal effect rating (CYPIR (Rice Flatsedge); 0.0313 kg/ha): 5.0 | CYPIR herbicidal effect rating (CYPIR (Rice Flatsedge); 0.0625 kg/ha): 6.0 | CYPIR herbicidal effect rating (CYPIR (Rice Flatsedge); 0.1250 kg/ha): 9.0 | CYPIR herbicidal effect rating (CYPIR (Rice Flatsedge); 0.2500 kg/ha): 9.0 | Preemergence herbicidal rating ABUTH (ABUTH (Velvetleaf) [9]; rate 0.0156 kg/ha): 0.0 | Preemergence herbicidal rating ABUTH (ABUTH (Velvetleaf) [9]; rate 0.0313 kg/ha): 0.0 | Preemergence herbicidal rating ABUTH (ABUTH (Velvetleaf) [9]; rate 0.0625 kg/ha): 0.0 | Preemergence herbicidal rating ABUTH (ABUTH (Velvetleaf) [9]; rate 0.1250 kg/ha): 9.0 | Preemergence herbicidal rating ABUTH (ABUTH (Velvetleaf) [9]; rate 0.2500 kg/ha): 9.0 | Herbicidal rating SETVI (SETVI (Foxtail, Green); rate 0.0158 kg/ha): 0.0 | Herbicidal rating SETVI (SETVI (Foxtail, Green); rate 0.0315 kg/ha): 4.0 | Herbicidal rating SETVI (SETVI (Foxtail, Green); rate 0.0630 kg/ha): 9.0 | Preemergence herbicidal rating CASOB (CASOB (Sicklepod); rate 0.0156 kg/ha): 2.0 | Preemergence herbicidal rating CASOB (CASOB (Sicklepod); rate 0.0625 kg/ha): 0.0 | Preemergence herbicidal rating CASOB (CASOB (Sicklepod); rate 0.1250 kg/ha): 4.0 | Preemergence herbicidal rating CASOB (CASOB (Sicklepod); rate 0.2500 kg/ha): 2.0 | SAGPY herbicidal effect rating ([10]; 0.0313 kg/ha): 2.0 | SAGPY herbicidal effect rating ([10]; 0.0625 kg/ha): 3.0 | SAGPY herbicidal effect rating ([10]; 0.1250 kg/ha): 5.0 | SAGPY herbicidal effect rating ([10]; 0.2500 kg/ha): 6.0 | MOOVA herbicidal effect rating (MOOVA (Monochoria); 0.0313 kg/ha): 7.0 | MOOVA herbicidal effect rating (MOOVA (Monochoria); 0.0625 kg/ha): 9.0 | MOOVA herbicidal effect rating (MOOVA (Monochoria); 0.1250 kg/ha): 9.0 | MOOVA herbicidal effect rating (MOOVA (Monochoria); 0.2500 kg/ha): 9.0 | Herbicidal rating AMBEL (AMBEL (Ragweed, Common); rate 0.0158 kg/ha): 1.0 | Herbicidal rating AMBEL (AMBEL (Ragweed, Common); rate 0.0315 kg/ha): 6.0 | Herbicidal rating AMBEL (AMBEL (Ragweed, Common); rate 0.0630 kg/ha): 7.0
